# Results reported in patent US20190203253A1, “METHODS OF IDENTIFYING AND TREATING CANCER PATIENTS WITH AN EPHB6 DEFICIENCY” (University of Saskatchewan, priority 2016, published 2019).
# Assays:
# prostate cancer = settings: reference [26]; cited from earlier work
# [1] = system: co-cultured MDA-B6 and MDA-pc3 cells; experiment: Drug sensitivity assay with fluorescent co-cultured cells (flow cytometry), KX2-391; assay type: cell-based, human; settings: GFP/RFP-labelled MDA-B6 and MDA-pc3 co-seeded in equal numbers, 25 nM, 72 h (FIGS. 4D, 4E)
# Description: FIG. 4. SL interaction between EPHB6 and SRC. A. MDA-pc3 and MDA-B6 cells were cultured in 96-well plates with the indicated concentrations of SU6656 or matching volumes of DMSO for 72 h. Cells were stained with resazurin and fluorescence was measured using a SpectraMax M5 plate reader to determine cell suppression. Five wells were analyzed per condition. […] B. MDA-pc3 and MDA-B6 cells were cultured in 96-well plates with the indicated concentrations of KX2-391 or matching volumes of DMSO for 72 h. Cells were stained with resazurin and fluorescence was measured using a SpectraMax M5 plate reader to determine cell suppression. Five wells were analyzed per condition. […] C. MDA-B6 and MDA-pc3 cells were transduced with lentivirus encoding pLD-GFP-Puro or pLD-RFP-Puro as indicated. Cells were selected with 2 μg/mL puromycin for 48 h, cultured in monolayer, and imaged by confocal microscopy at 100× magnification. […] Cells were collected and analyzed by flow cytometry and the FlowJo software. […] Cells were collected and analyzed by flow cytometry and the FlowJo software. […]
# For color assays, MDA-B6-GFP and MDA-pc3-RFP, or MDA-B6-RFP and MDA-pc3-GFP cells were co-seeded in equal numbers in 12-well plates at indicated cell densities. […] Treated cells were collected and quantitated by flow cytometry. Results were analyzed using the FlowJo software (FLOWJO LLC, Ashland, Oreg., USA).
# [2] = system: CD34-stained blood vessels in MDA-B6 and MDA-pc3 tumors; experiment: Anti-CD34 immunohistochemistry of xenograft tumors (blood vessel density); assay type: in vivo, NOD-SCID mice; settings: KX2-391-treated MDA-B6 and MDA-pc3 tumors (FIG. 7B)
# Description: FIG. 7. Analysis of the SL interaction between EPHB6 and SRC in TNBC cells and murine xenografts. A. MDA-pc3 and MDA-B6 cells were injected into the mammary fat pad region of 4-6 weeks old NOD-SCID mice (1×10^6 cells per mouse). Mice with detectable tumors were treated twice per day with 5 mg/kg KX2-391 in DMSO/water solvent or solvent alone by oral feeding (at least 6 animals per each experimental condition). Tumor size was measured every 3 days and tumor volume was calculated with the equation: A/2*B^2, where A was long and B was short diameter of the tumor. The reduction in tumor growth in KX2-391-treated mice is presented as a percentage relative to matching solvent controls. The graph summarizes two independent experiments. Day 0 indicates the beginning of treatment with KX2-391 or matching solvent control. […] Four representative fields (at 3, 6, 9, and 12 o'clock) per each stained tumor section (one for each extracted tumor) were imaged at 100× magnification and the blood vessel density per each field was analyzed with the Image-Pro Premier software. […]
# For the immunohistochemical staining, tumors were dissected and fixed in 10% neutral- buffered formalin for 24-48 h. […] In each stained tumor section, 12, 3, 6 and 9 o'clock fields were imaged at 100× magnification and the density of stained blood vessels per field was quantified using the Image-Pro Premier software.
smiles,measurement,setting,value
O=C(Cc1ccc(-c2ccc(OCCN3CCOCC3)cc2)cn1)NCc1ccccc1 [KX2-391],clinical effect in phase II trials for prostate cancer,prostate cancer,relatively modest effect
same,cell suppression in co-culture monitored by flow cytometry,[1],EPHB6-deficient cells are much less resistant to SRC inhibition
same,neovascularization (CD34 staining) of treated EPHB6-positive vs EPHB6-negative tumors,[2],has not shown any differences in neovascularization
